Columns and labels:
[1] = system: Staphylococcus aureus, methicillin susceptible; assay: Standard microdilution susceptibility test, clinical isolates; format: cell-based; settings: 10 clinical isolates
[2] = system: Staphylococcus aureus, methicillin resistant; assay: as above; format: cell-based; settings: 10 clinical isolates
[3] = system: Coagulase-negative Staphylococus sp., methicillin resistant; assay: as above; format: cell-based; settings: 10 clinical isolates
[4] = system: Enterococcus sp., decreased vancomycin susceptibility; assay: as above; format: cell-based; settings: 5 clinical isolates
[5] = system: Streptococcus pneumoniae, penicillin susceptible; assay: as above; format: cell-based; settings: for MIC: single isolate
[6] = system: Streptococcus pneumoniae, penicillin resistant; assay: as above; format: cell-based
[7] = system: Streptococcus viridans sp.; assay: as above; format: cell-based; settings: 20 clinical isolates
[8] = system: E. casseliflavus; assay: Microdilution MIC, Enterococcus isolates with van resistance genes; format: cell-based
Protocol: (§1) Identification and characterization of resistance patterns of these bacteria were performed by standard methods.
(§2) When forming the test groups we attached great importance to the increasing incidence of drug-resistant microbes causing therapeutic problems. Most important of them are methicillin-resistant Staphylococcus aureus (MRSA), methicillin-resistant coagulase-negative Staphylococcus spp. (MRCoNS), penicillin-resistant Streptococcus pneumoniae (pneumococcus), vancomycin-resistant Enterococcus spp. (VRE). Pneumococcus isolates represented various serotypes, VRE isolates belonged to various species. Moreover, vancomycin-resistance of VRE isolates was based on different genetic backgrounds. Antibiotic-resistant strains were also represented among international reference strains, for example methicillin-resistant Staphylococcus aureus ATCC 43300 (MRSA), Staphylococcus aureus with decreased vancomycin susceptibility ATCC 700698 and 700699 (vancomycin intermediate Staphylococcus aureus—VISA), mupirocin-resistant Staphylococcus aureus ATCC BAA1708 and vancomycin-resistant Enterococcus faecalis ATCC 51299 (VRE).
(§3) Susceptibility tests were performed according to the standard microdilution method (NCCLS (CLSI) M7-A7).
(§4) The lowest concentration at which no bacterial growth was observed after the incubation period is the Minimal Inhibitory Concentration (MIC). The MIC value is inversely proportional to the antimicrobial efficacy. MIC values of antimicrobial agents can differ by species or even by bacterial strains within species.

[9] = system: E. faecalis; assay: as above; format: cell-based
Protocol: as §1, §2, §3, §4

[10] = system: E. faecium; assay: as above; format: cell-based; settings: resistance gene van B
Protocol: as §1, §2, §3, §4

[11] = system: Staphylococcus epidermidis 7586; settings: cited from earlier work
[12] = system: Diphteroides 8264; settings: cited from earlier work
[13] = system: Serotype β Streptococcus 8252; settings: cited from earlier work
[14] = system: Streptococcus mitis 5728; settings: cited from earlier work
[15] = system: Staphylococcus hominis 7835; settings: cited from earlier work
[16] = system: Micrococcus spp.; settings: cited from earlier work
[17] = system: Staphylococcus capitis; settings: cited from earlier work
[18] = system: Escherichia coli B 1218; settings: cited from earlier work
[19] = system: Enterobacter cloacae B 520; settings: cited from earlier work
[20] = system: Bacillus subtilis ATCC 6633; settings: cited from earlier work
[21] = system: S. aureus; settings: by Bryskier; cited from earlier work
[22] = system: Staphylococcus epidermidis; settings: by Bryskier; cited from earlier work
[23] = system: S. pyogenes; settings: by Bryskier; cited from earlier work
[24] = system: Streptococcus mitis; settings: by Bryskier; cited from earlier work
[25] = system: Micrococcus; settings: by Bryskier; cited from earlier work
[26] = system: Coryneform(s); settings: by Bryskier; cited from earlier work
[27] = system: Escherichia coli; settings: by Bryskier; cited from earlier work
[28] = system: Gram-negative species; settings: crystalline primycin and amorphous predecessor; Uri and Actor 1979; cited from earlier work
[29] = system: laboratory strain Listeria monocytogenes; settings: Uri 1986; cited from earlier work
[30] = system: erythromycin-sensitive Staphylococcus spp. strains; settings: collection of 279 strains; cited from earlier work
[31] = system: erythromycin-resistant staphylococci; settings: 71 strains; cited from earlier work
[32] = system: S. aureus and coagulase-negative staphylococci; settings: Bryskier 2005; cited from earlier work
[33] = system: enterococci and S. pyogenes; settings: Bryskier 2005; cited from earlier work

## Primycin
[1]
  MIC 50%: 0.06 µg/mL
  MIC 90%: 0.06 µg/mL
  MIC Range: 0.06-0.06 mg/L
  Ratio of Sensitive/Total: 10/10
[2]
  MIC 50%: 0.06 µg/mL
  MIC 90%: 0.06 µg/mL
  MIC Range: 0.06-0.06 mg/L
  Ratio of Sensitive/Total: 10/10
[3]
  MIC 50%: 0.06 µg/mL
  MIC 90%: 0.06 µg/mL
  MIC Range: 0.03 to 0.06 µg/mL
  Ratio of Sensitive/Total: 10/10
[4]
  MIC Range: 0.25 to 0.5 µg/mL
  Ratio of Sensitive/Total: 5/5
[5]; 10 clinical isolates
  MIC 50%: 0.5 µg/mL
  MIC 90%: 0.5 µg/mL
  MIC Range: 0.25 to 1 µg/mL
  Ratio of Sensitive/Total: 10/10
[5]; serotype 3
  MIC: 0.5 µg/mL
[5]; serotype 4
  MIC: 0.5 µg/mL
[5]; serotype 7F
  MIC: 0.5 µg/mL
[5]; serotype 8
  MIC: 0.5 µg/mL
[5]; serotype 9(V)
  MIC: 0.5 µg/mL
[5]; serotype 11(A)
  MIC: 0.5 µg/mL
[5]; serotype 19F
  MIC: 0.5 µg/mL
[5]; serotype 23(F)
  MIC: 0.25 µg/mL
[6]; 10 clinical isolates
  MIC 50%: 0.5 µg/mL
  MIC 90%: 1 µg/mL
  MIC Range: 0.5 to 1 µg/mL
  Ratio of Sensitive/Total: 10/10
[6]; single isolate, serotype 23(F)
  MIC: 0.5 µg/mL
[7]
  MIC 50%: 1 µg/mL
  MIC 90%: 1 µg/mL
  MIC Range: 0.5 to 1 µg/mL
  Ratio of Sensitive/Total: 20/20
[8]; resistance gene van C1
  MIC: 0.5 µg/mL
[8]; resistance gene van C2
  MIC: 0.5 µg/mL
[9]; resistance gene van A
  MIC: 0.5 µg/mL
[9]; resistance gene van C1
  MIC: 0.5 µg/mL
[10]
  MIC: 0.25 µg/mL
[11]
  MIC: 0.78 µg/mL
[12]
  MIC: 50.0 µg/mL
[13]
  MIC: 1.56 µg/mL
[14]
  MIC: 50.0 µg/mL
[15]
  MIC: 0.39 µg/mL
[16]
  MIC: 0.78 µg/mL
[17]
  MIC: 0.78 µg/mL
[18]
  MIC: 50.0 µg/mL
[19]
  MIC: 50.0 µg/mL
[20]
  MIC: 0.39 µg/mL
[21]
  MIC: 0.39 µg/mL
[22]
  MIC: 0.78 µg/mL
[23]
  MIC: 1.56 µg/mL
[24]
  MIC: 50 µg/mL
[25]
  MIC: 0.78 µg/mL
[26]
  MIC: 50 µg/mL
[27]
  MIC: 50 µg/mL
[28]
  efficacy against Gram-negative species: ineffective
[29]
  MIC: 0.25 µg/mL
[30]
  share of strains primycin-resistant (MIC≧5 mg/L): 1%
[31]
  share of strains presenting primycin resistance: 13%
[32]
  efficacy: effective
[33]
  efficacy: moderate efficacy

— patent publication US20140303105A1, “Primycin and components thereof for use in the treatment or prevention of infections caused by specific pathogens” (PANNONPHARMA GYÓGYSZERGYÁRTÓ ZRT., priority 2011, published 2014)
